Experimental data reported in ChEMBL document CHEMBL3885881, “DrugMatrix”.

Organism: Rattus norvegicus
Experiment: DrugMatrix - Regimen: Daily Repeat
Type: toxicity, organism-based, Sprague-Dawley
Parameters: regimen Daily Repeat, gender Male, age 6-8 weeks
Details: in vivo, po, route oral GAVAGE, […]; for ABSOLUTE BASOPHIL / ABSOLUTE EOSINOPHIL / ABSOLUTE LYMPHOCYTE / ABSOLUTE MONOCYTE / ABSOLUTE SEGMENTED NEUTROPHIL / BASOPHIL / EOSINOPHIL / ERYTHROCYTE COUNT / HEMATOCRIT / HEMOGLOBIN / LEUKOCYTE COUNT / LYMPHOCYTE / MEAN CORPUSCULAR HEMOGLOBIN / MEAN CORPUSCULAR HEMOGLOBIN CONCENTRATION / MEAN CORPUSCULAR VOLUME / MONOCYTE / NEUTROPHIL / NUCLEATED RED BLOOD CELLS / PLATELET COUNT: tissue Blood; for ALANINE AMINOTRANSFERASE / ALBUMIN / ALKALINE PHOSPHATASE / ASPARTATE AMINOTRANSFERASE / BLOOD UREA NITROGEN / CARBON DIOXIDE / CHLORIDE / CHOLESTEROL / CREATINE PHOSPHOKINASE / CREATININE / GLUCOSE / LACTATE DEHYDROGENASE / LIPASE / PHOSPHORUS / POTASSIUM / SODIUM / TOTAL BILIRUBIN / TOTAL PROTEIN / URIC ACID: tissue Plasma
[1] = 10 mg/kg, 72 h, dose level Low, time 3 day
[2] = 10 mg/kg, 120 h, dose level Low, time 5 day
[3] = 50 mg/kg, 72 h, dose level High, time 3 day
[4] = 50 mg/kg, 120 h, dose level High, time 5 day

**Q.** Which results are given for `CC(C)CC(N(C)C)C1(c2ccc(Cl)cc2)CCC1` (configuration not stated) [SIBUTRAMINE]?
**A.** ABSOLUTE BASOPHIL [1]: 0 CELLS/uL; ABSOLUTE EOSINOPHIL [1]: 0 CELLS/uL; ABSOLUTE LYMPHOCYTE [1]: 16618.67 CELLS/uL; ABSOLUTE MONOCYTE [1]: 131.33 CELLS/uL; ABSOLUTE SEGMENTED NEUTROPHIL [1]: 1483.33 CELLS/uL; BASOPHIL [1]: 0%; EOSINOPHIL [1]: 0%; ERYTHROCYTE COUNT [1]: 5.37 x10E6/uL; HEMATOCRIT [1]: 34.23%; HEMOGLOBIN [1]: 13.53 G/DL; LEUKOCYTE COUNT [1]: 18.23 x10E3/uL; LYMPHOCYTE [1]: 91%; MEAN CORPUSCULAR HEMOGLOBIN [1]: 25.17 pg; MEAN CORPUSCULAR HEMOGLOBIN CONCENTRATION [1]: 39.53 G/DL; MEAN CORPUSCULAR VOLUME [1]: 63.67 fL; MONOCYTE [1]: 0.67%; NEUTROPHIL [1]: 8.33%; NUCLEATED RED BLOOD CELLS [1]: 0.33 /100WBC; PLATELET COUNT [1]: 1187.67 x10E3/uL; ALANINE AMINOTRANSFERASE [1]: 61.33 u/L; ALBUMIN [1]: 3.93 G/DL; ALKALINE PHOSPHATASE [1]: 368 u/L; ASPARTATE AMINOTRANSFERASE [1]: 88.33 u/L; BLOOD UREA NITROGEN [1]: 12 mg/dL; CARBON DIOXIDE [1]: 33 mmol/L; CHLORIDE [1]: 100.33 MEQ/L; CHOLESTEROL [1]: 70 mg/dL; CREATINE PHOSPHOKINASE [1]: 531.67 u/L; CREATININE [1]: 0.1 mg/dL; GLUCOSE [1]: 158.33 mg/dL; LACTATE DEHYDROGENASE [1]: 253.33 u/L; LIPASE [1]: 10.33 u/L; PHOSPHORUS [1]: 11.93 mg/dL; POTASSIUM [1]: 6.44 MEQ/L; SODIUM [1]: 140.57 MEQ/L; TOTAL BILIRUBIN [1]: 0.13 mg/dL; TOTAL PROTEIN [1]: 5.37 G/DL; URIC ACID [1]: 1.27 mg/dL; ABSOLUTE BASOPHIL [2]: 0 CELLS/uL; ABSOLUTE EOSINOPHIL [2]: 0 CELLS/uL; ABSOLUTE LYMPHOCYTE [2]: 12939.67 CELLS/uL; ABSOLUTE MONOCYTE [2]: 411.33 CELLS/uL; ABSOLUTE SEGMENTED NEUTROPHIL [2]: 1515.67 CELLS/uL; BASOPHIL [2]: 0%; EOSINOPHIL [2]: 0%; ERYTHROCYTE COUNT [2]: 5.44 x10E6/uL; HEMATOCRIT [2]: 33.73%; HEMOGLOBIN [2]: 13.47 G/DL; LEUKOCYTE COUNT [2]: 14.87 x10E3/uL; LYMPHOCYTE [2]: 86.67%; MEAN CORPUSCULAR HEMOGLOBIN [2]: 24.83 pg; MEAN CORPUSCULAR HEMOGLOBIN CONCENTRATION [2]: 39.93 G/DL; MEAN CORPUSCULAR VOLUME [2]: 62.2 fL; MONOCYTE [2]: 2.67%; NEUTROPHIL [2]: 10.67%; NUCLEATED RED BLOOD CELLS [2]: 0 /100WBC; PLATELET COUNT [2]: 1072.33 x10E3/uL; ALANINE AMINOTRANSFERASE [2]: 55.67 u/L; ALBUMIN [2]: 4.07 G/DL; ALKALINE PHOSPHATASE [2]: 363.67 u/L; ASPARTATE AMINOTRANSFERASE [2]: 79.33 u/L; BLOOD UREA NITROGEN [2]: 14 mg/dL; CARBON DIOXIDE [2]: 34.33 mmol/L; CHLORIDE [2]: 101.33 MEQ/L; CHOLESTEROL [2]: 72 mg/dL; CREATINE PHOSPHOKINASE [2]: 211.33 u/L; CREATININE [2]: 0.23 mg/dL; GLUCOSE [2]: 148.67 mg/dL; LACTATE DEHYDROGENASE [2]: 269 u/L; LIPASE [2]: 11 u/L; PHOSPHORUS [2]: 10.8 mg/dL; POTASSIUM [2]: 6.14 MEQ/L; SODIUM [2]: 143.2 MEQ/L; TOTAL BILIRUBIN [2]: 0.17 mg/dL; TOTAL PROTEIN [2]: 5.57 G/DL; URIC ACID [2]: 1.07 mg/dL; ABSOLUTE BASOPHIL [3]: 0 CELLS/uL; ABSOLUTE EOSINOPHIL [3]: 0 CELLS/uL; ABSOLUTE LYMPHOCYTE [3]: 12941.33 CELLS/uL; ABSOLUTE MONOCYTE [3]: 144.33 CELLS/uL; ABSOLUTE SEGMENTED NEUTROPHIL [3]: 2147.67 CELLS/uL; BASOPHIL [3]: 0%; EOSINOPHIL [3]: 0%; ERYTHROCYTE COUNT [3]: 5.65 x10E6/uL; HEMATOCRIT [3]: 35.8%; HEMOGLOBIN [3]: 14.6 G/DL; LEUKOCYTE COUNT [3]: 15.23 x10E3/uL; LYMPHOCYTE [3]: 85.33%; MEAN CORPUSCULAR HEMOGLOBIN [3]: 25.83 pg; MEAN CORPUSCULAR HEMOGLOBIN CONCENTRATION [3]: 40.8 G/DL; MEAN CORPUSCULAR VOLUME [3]: 63.37 fL; MONOCYTE [3]: 1%; NEUTROPHIL [3]: 13.67%; NUCLEATED RED BLOOD CELLS [3]: 0 /100WBC; PLATELET COUNT [3]: 1122.33 x10E3/uL; ALANINE AMINOTRANSFERASE [3]: 51.33 u/L; ALBUMIN [3]: 3.67 G/DL; ALKALINE PHOSPHATASE [3]: 417 u/L; ASPARTATE AMINOTRANSFERASE [3]: 96 u/L; BLOOD UREA NITROGEN [3]: 13 mg/dL; CARBON DIOXIDE [3]: 31.67 mmol/L; CHLORIDE [3]: 102.33 MEQ/L; CHOLESTEROL [3]: 68.67 mg/dL; CREATINE PHOSPHOKINASE [3]: 259.67 u/L; CREATININE [3]: 0.14 mg/dL; GLUCOSE [3]: 156.33 mg/dL; LACTATE DEHYDROGENASE [3]: 181 u/L; LIPASE [3]: 10 u/L; PHOSPHORUS [3]: 11.27 mg/dL; POTASSIUM [3]: 5.99 MEQ/L; SODIUM [3]: 144.97 MEQ/L; TOTAL BILIRUBIN [3]: 0.17 mg/dL; TOTAL PROTEIN [3]: 5.37 G/DL; URIC ACID [3]: 1.3 mg/dL; ABSOLUTE BASOPHIL [4]: 0 CELLS/uL; ABSOLUTE EOSINOPHIL [4]: 0 CELLS/uL; ABSOLUTE LYMPHOCYTE [4]: 16000.33 CELLS/uL; ABSOLUTE MONOCYTE [4]: 0 CELLS/uL; ABSOLUTE SEGMENTED NEUTROPHIL [4]: 833 CELLS/uL; BASOPHIL [4]: 0%; EOSINOPHIL [4]: 0%; ERYTHROCYTE COUNT [4]: 5.75 x10E6/uL; HEMATOCRIT [4]: 36.37%; HEMOGLOBIN [4]: 14.3 G/DL; LEUKOCYTE COUNT [4]: 16.83 x10E3/uL; LYMPHOCYTE [4]: 95%; MEAN CORPUSCULAR HEMOGLOBIN [4]: 24.9 pg; MEAN CORPUSCULAR HEMOGLOBIN CONCENTRATION [4]: 39.33 G/DL; MEAN CORPUSCULAR VOLUME [4]: 63.37 fL; MONOCYTE [4]: 0%; NEUTROPHIL [4]: 5%; NUCLEATED RED BLOOD CELLS [4]: 0 /100WBC; PLATELET COUNT [4]: 1265 x10E3/uL; ALANINE AMINOTRANSFERASE [4]: 57.33 u/L; ALBUMIN [4]: 4.07 G/DL; ALKALINE PHOSPHATASE [4]: 391.67 u/L; ASPARTATE AMINOTRANSFERASE [4]: 95.67 u/L; BLOOD UREA NITROGEN [4]: 14.67 mg/dL; CARBON DIOXIDE [4]: 30 mmol/L; CHLORIDE [4]: 102 MEQ/L; CHOLESTEROL [4]: 56 mg/dL; CREATINE PHOSPHOKINASE [4]: 585 u/L; CREATININE [4]: 0.11 mg/dL; GLUCOSE [4]: 164 mg/dL; LACTATE DEHYDROGENASE [4]: 175.33 u/L; LIPASE [4]: 9.67 u/L; PHOSPHORUS [4]: 12.43 mg/dL; POTASSIUM [4]: 6.27 MEQ/L; SODIUM [4]: 142.13 MEQ/L; TOTAL BILIRUBIN [4]: 0.1 mg/dL; TOTAL PROTEIN [4]: 5.6 G/DL; URIC ACID [4]: 1.73 mg/dL
